These results are taken from patent US11013696B2, “Lipids and lipid compositions for the delivery of active agents” (Novartis AG, priority 2013, dated 2021).

Series [1] can be described thus: Percent encapsulation of plasmid DNA in lipid nanoparticles (Quant-iT Ribogreen). Type of series: physicochemical. As for the experimental part: All equipment and disposable supplies are certified free of RNase activity by the manufacturer or rendered RNase free by use of the RNaseZap reagent (LifeTechnologies). Plasmid is encapsulated at a cationic lipid amine to DNA phosphate (N:P) molar ratio of 4:1. Lipids (cationic lipid, DSPC, cholesterol and lipidated PEG) are dissolved in ethanol. The molar ratios are 40:10:38:2, respectively. The mixture is sonicated briefly, then gently agitated for 5 minutes and then maintained at 37° C. until use. Plasmid is exchanged into citrate buffer pH 6.0 by use of Amicon Ultra-15 centrifugal concentrators, and the final concentration is adjusted to 0.053 mg/ml and held at 37° C. until use. An equal volume of lipids in ethanol, plasmid in citrate buffer, and citrate buffer alone are drawn into disposable syringes. Tubing leading from syringes containing lipids and DNA are attached to the T junction, and tubing leading from the syringe containing citrate buffer alone is paired with the tubing exiting the T-junction over a collection vessel containing a stir bar on an active stir plate. Syringes are placed in a syringe pump set to expel contents at a flow rate of 1 ml per minute. The pump is activated, and the collected DNA in lipid nanoparticles is transferred to SnakeSkin dialysis tubing (10,000 MWCO, Thermo Scientific). Material is dialyzed against RNAse- and pyrogen-free 1× phosphate buffered saline overnight at 4° C.
Percent encapsulation of plasmid DNA in lipid nanoparticles is determined using the Quant-iT Ribogreen RNA Assay kit (Life Technologies). The LNP-DNA suspension is assayed in buffer (DNA outside the particle), and buffer plus Triton X-100 detergent (total DNA). The difference calculated is the DNA inside the particle. Prepare a 1000 ng/mL stock using unpackaged plasmid and use this to generate a standard curve (0 ng/ml, 15.63-1000 ng/ml) in TE and TE+0.75% Triton X-100. Prepare LNP-plasmid samples in TE buffer and TE buffer+0.75% Triton X-100 with appropriate dilution so that reading is in the range of standard curve (25 fold). In a 384-well plate (Costar non-treated #3573) add 0.04 ml of standard (in duplicate) or sample (in triplicate) per well. Dilute Ribogreen reagent 240-fold in TE buffer and add 0.06 ml per well. Mix contents of wells and measure fluorescence (excitation=480 nm, emission=520 nm). Subtract background values (no DNA) from standard and test sample values and determine the concentrations of DNA in the samples using the standard curves. Determine the percent encapsulation of the sample by dividing the difference in concentrations between sample+triton and sample in buffer alone by the sample+triton concentration.

For series [2], the system named is human leptin. In words: Human leptin in mouse plasma (ELISA) after IV tail vein injection of encapsulated leptin mRNA. The note with it: hLeptin. In kind it is in vivo. As for the experimental part: Human leptin in mouse plasma was measured by ELISA. Antibodies purchased from the R&D Systems duoset (Cat #DY398E, part #840279 for capture antibody and part #840280 for detection antibody) were reconstituted using PBS and titered, again using PBS. The capture antibody was coated at 4 ug/ml in 30 ul/well on a white Nunc® Maxisorp 384 well plate (Cat #460372). After an overnight incubation at room temperature the capture antibody was aspirated and the plate blocked for 2 hours at room temperature with 90 ul/well of KPL milk blocker (Cat #50-82-00). Once the incubation was completed the plate was aspirated and recombinant standards and samples were added to the plate at 30 ul/well for 2 hours at 37° C. while shaking at 600 rpm. Sample/standard dilutions were made using casein sample diluent. Washing/aspiration 3 times with 100 ul/well followed, using Teknova plate wash solution (Cat #P1192). Next, detection antibody was diluted using casein detection antibody diluent to 12.5 ng/ml and added at 30 ul/well for 2 hours room temperature. After this incubation, the plate was washed again and a solution of poly-streptavidin-HRP (Cat #21140) at a 1:1250 dilution in HRP dilution buffer was added to each well (30 ul/well) and incubated for 30 minutes room temperature. A final wash/aspiration removed the HRP solution and a chemiluminescent substrate was added at 30 ul/well (Cat #1859678 & 1859679). The plate was quickly read using a SpectramaxM5 plate reader with a 50 ms integration time. The dynamic range of the ELISA is from 100-2,000 […] (6.25-125 pM) of human leptin. The assay is applicable to plasma from mice, rats and cynomolgus monkeys.
Before the tail vein injection, mouse body weights were recorded and diet weighted, with mice grouped according to their body weights. Mice were prepared by warming them under a heating lamp for ˜2 minutes, with the mice about 12 inches from heat lamp. […]
On day 0, animals were weighed and sorted according to average body weight. Mice were dosed, and food intake (FI) was recorded, on each of days 1-7 and days 9, 11, and 16.

Series [3] relates to human leptin. Briefly: Human leptin in mouse plasma (ELISA) after subcutaneous injection of encapsulated leptin mRNA. In kind it is in vivo. The note with it: hLeptin, 0.2 mpk.
Series [4] in a line: Particle size and polydispersity by DLS of RSV-F replicon LNPs. Type of series: physicochemical. As for the experimental part: A self-replicating replicon encoding RSV F protein was administered to BALB/c mice, 8 animals per group, by bilateral intramuscular vaccinations (50 μL per leg) on days 0 and 21 with the replicon (0.1 and 1 ng) formulated as liposomes with the lipids described below. All liposomes tested were composed of 40% cationic lipid, 10% DSPC, 48% cholesterol and 2% PEG-DMG with similar amounts of RNA. The liposomes were all prepared using the same technique as described above.
% entrapment (% E), Concentration of RNA (Conc), particle size measured by DLS, and polydispersity reported by DLS of LNPs prepared with different cationic lipids
A general note: Replicon systems follow genome replication, usually without infectious particles.

For series [5], the system named is RSV F protein. Briefly: RSV immunogenicity: IgG titers after two IM immunizations with vA375 RNA expressing RSV-F in LNPs. In kind it is in vivo, BALB/c mice. The note with it: IM days 0 and 21, two weeks after two immunizations.
The mark [6] stands for this setting: RSV-F replicon LNP prepared for 1st IM.
Where [7] appears, read: RSV-F replicon LNP prepared for 2nd IM.

For the compound `CCCCCCCCCCCCC(CCOC(=O)CCCCC(COC(=O)CCCCCCC)COC(=O)CCCCCCC)OC(=O)OCCCN(CC)CC` (centres unmarked) [Example 1, 2-(10-dodecyl-3-ethyl-8,14-dioxo-7,9,13-trioxa-3-azaoctadecan-18-yl)propane-1,3-diyl dioctanoate], the “% Encap.” value is reported as 93.5% in series [1] (hLep plasmid) and 94.3% in series [1] (pDNA). In addition, the “Expression of protein following IV injection of encapsulated mRNA” value in series [2] (0.4mpk, C57) came out at 66.3 ng/mL. In addition, the entries for the “Expression of protein following SC injection of encapsulated mRNA” value in series [3] (C57) and in series [3] (ob/ob) were 1.2 ng/mL and 16.2 ng/mL, respectively. Further, the PDI in series [4] (setting [6]) was 0.105; in series [4] (setting [7]), 0.045. Further, the Size in series [4] (setting [6]) worked out at 139.1 nm; in series [4] (setting [7]), 131.3 nm. The entries for the “Immunogenicity (2wp2, log10 IgG titers)” value in series [5] (0.1 ng vA375 RNA) and in series [5] (1 ng vA375 RNA) were 3.98 log10 IgG titers and 4.22 log10 IgG titers, respectively.

With `CCCCCCCCCCCCC(CCOC(=O)CCCCC(OCCCCCCCC)OCCCCCCCC)OC(=O)OCCCN(CC)CC` (centres unmarked) [Example 16, 3-(((3-(diethylamino)propoxy)carbonyl)oxy)pentadecyl 6,6-bis(octyloxy)hexanoate], the “% Encap.” value in series [1] (hLep plasmid) stood at 96.7%; in series [1] (pDNA), 96.4%. Besides, in series [2] (0.2 mpk, ob/ob), the “Expression of protein following IV injection of encapsulated mRNA” value stood at 21.4 ng/mL. For the same compound, in series [3] (ob/ob), the “Expression of protein following SC injection of encapsulated mRNA” value is recorded as 8.4 ng/mL.

Regarding `CCCCCCCCCCCCC(CCOC(=O)CCCCC(OCC(CC)CCCC)OCC(CC)CCCC)OC(=O)OCCCN(CC)CC` (centres unmarked) [Example 18, 3-(((3-(diethylamino)propoxy)carbonyl)oxy)pentadecyl 6,6-bis((2-ethylhexyl)oxy)hexanoate], the results for the PDI in series [4] (setting [6]) and in series [4] (setting [7]) were 0.13 and 0.065, respectively. The Size in series [4] (setting [6]) is 132.2 nm; in series [4] (setting [7]) it was 139.8 nm. For the same compound, the “Immunogenicity (2wp2, log10 IgG titers)” value in series [5] (0.1 ng vA375 RNA) is on record as 3.5 log10 IgG titers; in series [5] (1 ng vA375 RNA) it was 4.26 log10 IgG titers.

For the compound `CCCCC/C=C\C/C=C\CCCCCCCCC(CCC(=O)OC(COC(=O)CCCCCCC)COC(=O)CCCCCCC)OC(=O)OCCCN(C)C` (centres unmarked) [Example 94, 2-(((13Z,16Z)-4-(((3-(dimethylamino)propoxy)carbonyl)oxy)docosa-13,16-dienoyl)oxy)propane-1,3-diyl dioctanoate], the figures for the “% Encap.” value in series [1] (hLep plasmid) and in series [1] (pDNA) were 95.0% and 89.3%, respectively.

For `CCCCCCCCCC(=O)OCCC(CC(CCCCCCCC)CCCCCCCC)OC(=O)OCCCN(C)C` (centres unmarked) [Example 70, 3-(((3-(dimethylamino)propoxy)carbonyl)oxy)-5-octyltridecyl decanoate], the PDI came out at 0.121 in series [4] (setting [6]) and 0.118 in series [4] (setting [7]). The values for the Size in series [4] (setting [6]) and in series [4] (setting [7]) were 133.7 nm and 141.7 nm, respectively. In addition, the “Immunogenicity (2wp2, log10 IgG titers)” value came to 3.90 log10 IgG titers in series [5] (0.1 ng vA375 RNA) and 4.37 log10 IgG titers in series [5] (1 ng vA375 RNA).
